Activity calls are given as the source filed them. Rule as the data show it: actives have a measured IC50 and inactives only a lower limit.
target: Envelope glycoprotein gp160 (Human immunodeficiency virus 1, UniProt Q6QLK5); assay: cell-free HIV fusion peptide-binding blockers – biochemical, uHTS, fluorescence dequenching, […] (AID 1986)
Sequence (Q6QLK5 whole entry, the tested form may be a part): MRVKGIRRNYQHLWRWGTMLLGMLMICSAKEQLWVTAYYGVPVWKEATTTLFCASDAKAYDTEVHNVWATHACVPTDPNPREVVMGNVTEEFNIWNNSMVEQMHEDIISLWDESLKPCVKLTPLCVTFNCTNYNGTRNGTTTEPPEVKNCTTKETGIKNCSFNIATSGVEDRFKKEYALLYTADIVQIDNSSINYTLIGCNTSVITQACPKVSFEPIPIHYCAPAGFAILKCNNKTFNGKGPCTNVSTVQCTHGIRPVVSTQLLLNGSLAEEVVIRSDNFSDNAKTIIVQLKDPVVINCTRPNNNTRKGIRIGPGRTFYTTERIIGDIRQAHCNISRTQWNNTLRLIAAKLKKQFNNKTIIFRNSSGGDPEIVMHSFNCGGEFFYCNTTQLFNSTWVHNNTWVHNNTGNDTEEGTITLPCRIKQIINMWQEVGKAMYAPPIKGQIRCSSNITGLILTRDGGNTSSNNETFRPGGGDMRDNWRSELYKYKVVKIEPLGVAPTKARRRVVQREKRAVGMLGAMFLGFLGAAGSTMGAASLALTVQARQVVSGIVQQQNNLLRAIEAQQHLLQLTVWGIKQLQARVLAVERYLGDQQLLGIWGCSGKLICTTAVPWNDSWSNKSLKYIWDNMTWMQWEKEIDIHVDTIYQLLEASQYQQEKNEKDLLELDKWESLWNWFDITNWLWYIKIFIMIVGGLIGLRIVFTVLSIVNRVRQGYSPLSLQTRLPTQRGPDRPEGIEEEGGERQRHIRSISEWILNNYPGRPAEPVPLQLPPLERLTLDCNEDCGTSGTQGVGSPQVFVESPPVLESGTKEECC

SMILES	IC50
O=C(O)/C=C/C(=O)Nc1ccc(C2(c3ccc(NC(=O)/C=C/C(=O)O)cc3)c3ccccc3-c3ccccc32)cc1	15 µM (active)
O=C(COc1cccc2ccccc12)Nc1ccc(Cl)cc1C(=O)O	31.3 µM (active)
O=C(O)C(c1ccccc1)N1C(=O)/C(=C\c2ccc(O)c(O)c2)SC1=S (stereo unspecified)	13.2 µM (active)
Cc1ccc(Cl)cc1N1CCN(C(=O)Cc2c(C(=O)O)[nH]c3ccc(Cl)cc23)CC1	24.5 µM (active)
Cc1ccc(N2C(=O)/C(=C/c3ccc(CN(CCC#N)S(C)(=O)=O)o3)C(=O)NC2=S)cc1C	21.6 µM (active)
COc1ccc2c(c1)cc(C(=O)N/N=C/c1c(O)c(C(=O)O)cc3ccccc13)n2C	7.59 µM (active)
